Data from patent US11685732B2, “MYST family histone acetyltransferase inhibitors” (Epizyme, Inc., priority 2017, dated 2023).

Columns and labels:
KAT-5 = KAT-5 (Homo sapiens (Human), UniProt Q92993); assay: KAT-5 biochemical inhibition assay (SAMDI mass spectrometry)
Outline: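 KAT-5 at 9 nM final was preincubated with serially diluted compound (2% DMSO) in 50 mM Tris pH 8.0 with 1 mM DTT. Reaction ran with 1 μM peptide substrate and 0.5 μM acetyl-CoA for 90 min at 25° C, was quenched with 0.5% formic acid, and was read by SAMDI-TOF mass spectrometry.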

KAT-6A = KAT-6A (Homo sapiens (Human), UniProt Q92794); assay: KAT-6A biochemical inhibition assay (SAMDI mass spectrometry)
Chain of KAT-6A (Q92794 other isoform, or with tags, fused parts or gaps): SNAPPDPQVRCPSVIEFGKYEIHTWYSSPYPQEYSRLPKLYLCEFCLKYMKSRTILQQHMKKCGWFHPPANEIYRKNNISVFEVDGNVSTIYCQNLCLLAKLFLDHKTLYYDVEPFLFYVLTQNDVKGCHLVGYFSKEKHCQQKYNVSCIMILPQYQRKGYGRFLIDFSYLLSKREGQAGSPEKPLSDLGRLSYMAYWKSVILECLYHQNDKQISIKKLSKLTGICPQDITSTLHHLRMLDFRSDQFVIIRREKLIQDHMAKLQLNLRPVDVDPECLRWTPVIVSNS
Outline: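 Enzyme (12.5 nM final) pre-incubated with serially diluted compounds (2% DMSO final) in 50 mM Tris pH 8.0 with Tween20, gelatin and 1 mM DTT. Reaction started with 1 μM peptide substrate and 1 μM acetyl-CoA, run 90 min at 25 °C, quenched with 0.5% formic acid, read by SAMDI-TOF mass spectrometry; IC50 derived.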

KAT-7 = KAT-7 (Homo sapiens (Human), UniProt O95251); assay: KAT-7 biochemical inhibition assay (SAMDI mass spectrometry)
Chain of KAT-7 (O95251 other isoform, or with tags, fused parts or gaps): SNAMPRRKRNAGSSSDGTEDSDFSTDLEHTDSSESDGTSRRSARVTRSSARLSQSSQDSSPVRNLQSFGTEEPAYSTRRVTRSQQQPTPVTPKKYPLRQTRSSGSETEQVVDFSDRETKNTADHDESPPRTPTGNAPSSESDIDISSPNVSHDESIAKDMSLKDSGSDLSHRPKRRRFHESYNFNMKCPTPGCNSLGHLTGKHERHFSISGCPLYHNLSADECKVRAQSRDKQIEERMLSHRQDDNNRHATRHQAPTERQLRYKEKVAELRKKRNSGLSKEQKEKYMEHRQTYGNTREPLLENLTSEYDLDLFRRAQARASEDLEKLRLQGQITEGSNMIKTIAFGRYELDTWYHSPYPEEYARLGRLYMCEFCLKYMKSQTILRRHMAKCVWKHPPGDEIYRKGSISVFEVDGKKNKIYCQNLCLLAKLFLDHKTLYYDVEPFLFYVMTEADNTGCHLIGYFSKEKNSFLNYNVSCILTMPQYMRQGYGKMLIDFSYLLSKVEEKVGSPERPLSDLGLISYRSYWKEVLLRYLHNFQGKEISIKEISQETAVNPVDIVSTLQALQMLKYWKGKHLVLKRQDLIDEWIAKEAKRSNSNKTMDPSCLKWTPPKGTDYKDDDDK
Outline: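 KAT-7 (6 nM) was pre-incubated with serially diluted compound (2% DMSO) in Tris pH 8.0 with DTT. Reaction with 1 μM peptide and 2 μM acetyl-CoA ran 120 min at 25 °C and was stopped with 0.5% formic acid. Acetylation was read by SAMDI-TOF mass spectrometry to give IC50.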

KAT-8 = KAT-8 (Homo sapiens (Human), UniProt Q9H7Z6); assay: KAT-8 biochemical inhibition assay (SAMDI mass spectrometry)
Chain of KAT-8 (Q9H7Z6 other isoform, or with tags, fused parts or gaps): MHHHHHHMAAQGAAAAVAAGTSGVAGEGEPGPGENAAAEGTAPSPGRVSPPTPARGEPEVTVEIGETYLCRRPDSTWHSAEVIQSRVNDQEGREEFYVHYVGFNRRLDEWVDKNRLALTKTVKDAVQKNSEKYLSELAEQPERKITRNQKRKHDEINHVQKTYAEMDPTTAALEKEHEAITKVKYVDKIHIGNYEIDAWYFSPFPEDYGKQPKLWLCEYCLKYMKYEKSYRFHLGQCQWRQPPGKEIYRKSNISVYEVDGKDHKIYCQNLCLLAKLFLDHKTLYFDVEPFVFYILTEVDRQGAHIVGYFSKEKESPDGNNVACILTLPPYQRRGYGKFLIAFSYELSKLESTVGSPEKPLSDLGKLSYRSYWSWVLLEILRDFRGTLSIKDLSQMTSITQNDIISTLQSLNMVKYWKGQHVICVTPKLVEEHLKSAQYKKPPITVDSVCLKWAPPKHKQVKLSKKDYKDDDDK
Outline: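 Compounds in 2% DMSO pre-incubated with 12.5 nM enzyme in 50 mM Tris pH 8.0 with Tween20, gelatin and 1 mM DTT. Then 1 μM peptide and 5 μM acetyl-CoA were added, 90 min at 25 °C; formic acid stop and SAMDI-TOF mass spectrometry for IC50.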

Chain of KAT-5 (Q92993 other isoform, or with tags, fused parts or gaps): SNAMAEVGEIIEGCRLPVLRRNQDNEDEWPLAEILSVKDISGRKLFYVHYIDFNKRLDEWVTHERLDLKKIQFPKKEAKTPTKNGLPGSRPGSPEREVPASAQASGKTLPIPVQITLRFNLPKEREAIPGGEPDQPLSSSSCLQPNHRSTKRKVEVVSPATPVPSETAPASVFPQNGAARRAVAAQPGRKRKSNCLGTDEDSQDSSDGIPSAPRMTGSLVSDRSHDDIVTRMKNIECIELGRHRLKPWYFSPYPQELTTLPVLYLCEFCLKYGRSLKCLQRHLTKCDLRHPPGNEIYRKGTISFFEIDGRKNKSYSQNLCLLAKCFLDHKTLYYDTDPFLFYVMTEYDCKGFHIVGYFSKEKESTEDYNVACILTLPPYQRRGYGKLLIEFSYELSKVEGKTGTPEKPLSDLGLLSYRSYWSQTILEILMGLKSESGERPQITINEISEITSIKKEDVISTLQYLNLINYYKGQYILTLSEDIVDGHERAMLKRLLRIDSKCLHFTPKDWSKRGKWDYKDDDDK

Compound | IC50 (KAT-5) | IC50 (KAT-6A) | IC50 (KAT-7) | IC50 (KAT-8)
CCNC(=O)N[C@H]1CC[C@H](CS(=O)(=O)NNC(=O)c2cc(-c3cn(C)cn3)cc(Cl)c2F)CC1 [Compound I-109] | < 10 µM | < 10 µM | < 10 µM | 10 to 50 µM
Cn1cnc(-c2cc(Cl)c(F)c(C(=O)NNS(=O)(=O)CC3CCC(NC(=O)N4CCC4)C3)c2)c1 (stereo not drawn) [Compound I-341] | < 10 µM | < 10 µM | < 10 µM | 10 to 50 µM
Cn1cnc(-c2cc(Cl)c(F)c(C(=O)NNS(=O)(=O)c3ccccc3Cl)c2)c1 [Compound I-309] | < 10 µM | < 10 µM | < 10 µM | 10 to 50 µM
Cn1cnc(-c2cc(Cl)c(Cl)c(C(=O)NNS(=O)(=O)CC3CCCCC3)c2)c1 [Compound I-144] | > 100 µM | > 100 µM | < 10 µM | > 100 µM
CC(=O)N1C[C@H](CS(=O)(=O)NNC(=O)c2cc(-c3cn(C)cn3)cc(Cl)c2F)[C@@H](C)C1 [Compound I-283] | 10 to 50 µM | 10 to 50 µM | < 10 µM | 10 to 50 µM
CNC(=O)N1CC(CS(=O)(=O)NNC(=O)c2cc(-c3cn(C)cn3)cc(Cl)c2F)C1 [Compound I-160] | 10 to 50 µM | 10 to 50 µM | < 10 µM | 10 to 50 µM
COc1ccc(CN(C)C(=O)N[C@H]2C[C@H](CS(=O)(=O)NNC(=O)c3cc(-c4cn(C)cn4)cc(Cl)c3F)C2)cc1 [Compound I-175] | < 10 µM | < 10 µM | < 10 µM | 10 to 50 µM
Cn1cnc(-c2cc(Cl)c(F)c(C(=O)NNS(=O)(=O)C[C@H]3CC[C@H](NC(=O)c4cccnc4)CC3)c2)c1 [Compound I-241] | < 10 µM | < 10 µM | < 10 µM | 10 to 50 µM
Cn1cnc(-c2cc(Cl)c(F)c(C(=O)NNS(=O)(=O)c3cnnn3C)c2)c1 [Compound I-71] | 10 to 50 µM | 10 to 50 µM | < 10 µM | 10 to 50 µM
Cn1cnc(-c2cc(Cl)c(F)c(C(=O)NNS(=O)(=O)CC3CCCC(NC(=O)c4ccncc4)C3)c2)c1 (stereo not drawn) [Compound I-238] | < 10 µM | < 10 µM | < 10 µM | 10 to 50 µM
Cn1cnc(-c2cc(Cl)c(F)c(C(=O)NNS(=O)(=O)CC3CN(S(C)(=O)=O)C3)c2)c1 [Compound I-220] | 10 to 50 µM | 10 to 50 µM | < 10 µM | 10 to 50 µM
COc1ccc(CN(C)C(=O)N2CC(CS(=O)(=O)NNC(=O)c3cc(-c4cn(C)cn4)cc(Cl)c3F)C2)cc1 [Compound I-202] | < 10 µM | < 10 µM | < 10 µM | 10 to 50 µM
Cn1cnc(-c2cc(Cl)c(F)c(C(=O)NNS(=O)(=O)C[C@H]3CC[C@@H](N(C)C(=O)OC(C)(C)C)CC3)c2)c1 [Compound I-331] | < 10 µM | 10 to 50 µM | < 10 µM | 10 to 50 µM
Cc1cc(-c2cn(C)cn2)cc(C(=O)NNS(=O)(=O)CC2CCCCC2)c1F [Compound I-129] | < 10 µM | < 10 µM | < 10 µM | > 100 µM
Cn1cnc(-c2cc(Cl)c(F)c(C(=O)NNS(=O)(=O)CC3CCN(S(=O)(=O)C4CCC4)C3)c2)c1 (stereo not drawn) [Compound I-106] | < 10 µM | < 10 µM | < 10 µM | 10 to 50 µM
Cn1ccc(-c2cc(Cl)c(F)c(C(=O)NNS(=O)(=O)CC3CCOCC3)c2)n1 [Compound I-6] | 10 to 50 µM | < 10 µM | 10 to 50 µM | > 100 µM
Cn1cnc(-c2cc(Cl)c(F)c(C(=O)NNS(=O)(=O)c3cccc(OCc4ccccc4)n3)c2)c1 [Compound I-375] | < 10 µM | < 10 µM | < 10 µM | 10 to 50 µM
O=C(NNS(=O)(=O)CC1CCCCC1)c1cc(-n2ccnc2)cc(Cl)c1F [Compound I-44] | 50 to 100 µM | > 100 µM | > 100 µM | > 100 µM
Cn1cnc(-c2cc(Cl)c(F)c(C(=O)NNS(=O)(=O)CC3CCCN(C(=O)C4CCOCC4)C3)c2)c1 (stereo not drawn) [Compound I-32] | < 10 µM | < 10 µM | < 10 µM | > 100 µM
Cc1cc(-c2cncn2C)cc(C(=O)NNS(=O)(=O)C2CCCCC2)c1F [Compound I-153] | > 100 µM | > 100 µM | > 100 µM | > 100 µM
Cn1cnc(-c2cc(Cl)c(F)c(C(=O)NNS(=O)(=O)C3CCOCC3)c2)c1 [Compound I-9] | 10 to 50 µM | 10 to 50 µM | < 10 µM | > 100 µM

Compound | IC50 (KAT-5) | IC50 (KAT-6A) | IC50 (KAT-7) | IC50 (KAT-8)
Cn1cnc(-c2cc(Cl)c(F)c(C(=O)NNS(=O)(=O)C[C@@H]3CCNC3)c2)c1 [Compound I-120] | 10 to 50 µM | 10 to 50 µM | < 10 µM | 10 to 50 µM
Cn1cnc(-c2cc(Cl)c(F)c(C(=O)NNS(=O)(=O)C[C@H]3C[C@H]4CC[C@@H]3O4)c2)c1 [Compound I-298] | < 10 µM | < 10 µM | < 10 µM | 10 to 50 µM
Cn1cnc(-c2cc(Cl)c(F)c(C(=O)NNS(=O)(=O)CC3CCCC(NC(N)=O)C3)c2)c1 (stereo not drawn) [Compound I-115] | < 10 µM | < 10 µM | < 10 µM | 10 to 50 µM
Cn1cnc(-c2cc(Cl)c(F)c(C(=O)NNS(=O)(=O)CC3CCC(NC(=O)OC(C)(C)C)C3)c2)c1 (stereo not drawn) [Compound I-285] | < 10 µM | < 10 µM | < 10 µM | 10 to 50 µM
Cn1cnc(-c2cc(Cl)c(F)c(C(=O)NNS(=O)(=O)CC3(F)CCCCC3)c2)c1 [Compound I-358] | < 10 µM | < 10 µM | < 10 µM | 10 to 50 µM
CN(C)C(=O)NC1CCC(CS(=O)(=O)NNC(=O)c2cc(-c3cn(C)cn3)cc(Cl)c2F)C1 (stereo not drawn) [Compound I-336] | < 10 µM | < 10 µM | < 10 µM | 10 to 50 µM
Cn1cnc(-c2cc(Cl)c(F)c(C(=O)NNS(=O)(=O)C[C@H]3CC[C@H](NC(=O)Cc4ccncc4)CC3)c2)c1 [Compound I-254] | < 10 µM | < 10 µM | < 10 µM | 10 to 50 µM
Cc1cn(-c2cc(Cl)c(F)c(C(=O)NNS(=O)(=O)CC3CCOCC3)c2)nn1 [Compound I-50] | < 10 µM | < 10 µM | 10 to 50 µM | > 100 µM
COc1ccccc1S(=O)(=O)NNC(=O)c1cc(-c2cn(C)cn2)cc(Cl)c1F [Compound I-321] | < 10 µM | < 10 µM | < 10 µM | 10 to 50 µM
CN1CCN(C2CCCC(CS(=O)(=O)NNC(=O)c3cc(-c4cn(C)cn4)cc(Cl)c3F)C2)C1=O (stereo not drawn) [Compound I-281] | < 10 µM | < 10 µM | < 10 µM | 10 to 50 µM
Cn1cnc(-c2cc(Cl)c(F)c(C(=O)NNS(=O)(=O)CC3CC4CCC(C3)O4)c2)c1 (stereo not drawn) [Compound I-242] | < 10 µM | < 10 µM | < 10 µM | 10 to 50 µM
Cn1cnc(-c2cc(Cl)c(F)c(C(=O)NNS(=O)(=O)CC3CC4CC4C3)c2)c1 (stereo not drawn) [Compound I-289] | < 10 µM | < 10 µM | < 10 µM | 10 to 50 µM
Cn1cnc(-c2cc(Cl)c(F)c(C(=O)NNS(=O)(=O)CC3CCc4ccccc4C3)c2)c1 (stereo not drawn) [Compound I-383] | < 10 µM | < 10 µM | < 10 µM | 10 to 50 µM
COCCn1cnc(-c2cc(C)c(F)c(C(=O)NNS(=O)(=O)CC3CCCN(C(=O)OC(C)(C)C)C3)c2)c1 (stereo not drawn) [Compound I-135] | < 10 µM | 50 to 100 µM | 10 to 50 µM | > 100 µM
Cn1cnc(-c2cc(Cl)c(F)c(C(=O)NNS(=O)(=O)CC3CCC(N)C3)c2)c1 (stereo not drawn) [Compound I-339] | 10 to 50 µM | 10 to 50 µM | < 10 µM | 10 to 50 µM
CCNC(=O)N1CCC(C)C(CS(=O)(=O)NNC(=O)c2cc(-c3cn(C)cn3)cc(Cl)c2F)C1 (stereo not drawn) [Compound I-352] | < 10 µM | 10 to 50 µM | < 10 µM | 10 to 50 µM
CCC(=O)N[C@H]1CC[C@H](CS(=O)(=O)NNC(=O)c2cc(-c3cn(C)cn3)cc(Cl)c2F)CC1 [Compound I-195] | < 10 µM | < 10 µM | < 10 µM | 10 to 50 µM
Cn1cnc(-c2cc(Cl)c(F)c(C(=O)NNS(=O)(=O)C3CCC3)c2)c1 [Compound I-12] | 50 to 100 µM | 50 to 100 µM | < 10 µM | > 100 µM
Cn1cnc(-c2cc(Cl)c(F)c(C(=O)NNS(=O)(=O)C[C@@H]3CCCO3)c2)c1 [Compound I-389] | < 10 µM | < 10 µM | < 10 µM | > 100 µM
Cn1cnc(-c2cc(Cl)c(F)c(C(=O)NNS(=O)(=O)CC3CCCC3)c2)c1 [Compound I-20] | < 10 µM | < 10 µM | < 10 µM | 50 to 100 µM
Cn1cnc(-c2cc(Cl)c(F)c(C(=O)NNS(=O)(=O)CC3CCC(F)(F)CC3)c2)c1 [Compound I-262] | < 10 µM | < 10 µM | < 10 µM | 10 to 50 µM
